# Reference: patent US11484539B2, “Compounds and their uses for alleviating menopause-associated symptoms” (Estetra SPRL, priority 2018, dated 2022)
# System: post-menopausal women
# Test: Weekly severity of moderate to severe VMS, dose-finding study
# Assay type: in vivo
# From the text: To determine the Minimum Effective Dose (MED), firstly the selection criteria required that patients presented at least 7 moderate to severe VMS/day or at least 50 moderate to severe VMS/week in the week preceding randomization. Secondly, a placebo group was included in a double-blind fashion. Thirdly, the total patient number was such that statistical significance could be obtained between separate arms of the study. Fourthly, the absolute change from baseline in weekly frequency of moderate to severe VMS was taken into account. An analysis of covariance (ANCOVA) was performed based on the untransformed change in weekly frequency of moderate to severe VMS from baseline. Finally, the change in severity from baseline was evaluated. For this, the Severity Scoring System of VMS was documented by the subjects as follows: • a score of Mild (1) for a sensation of heat without sweating; • a score of Moderate (2) for a sensation of heat with sweating/the subject is able to continue activity; and • a score of Severe (3) for a sensation of heat with sweating/which causes cessation of activity.
# In addition, a severity score of zero was attributed to the patients who have experienced a 100% VMS relief during a given week.
# From these score records, the severity at baseline was calculated by taking into account only moderate and severe VMS, such that the total number of moderate VMS during the 7 days of the baseline week was multiplied by 2 and added to the total number of severe VMS during the 7 days of the baseline week multiplied by 3. This total was then divided by the total number of moderate and severe VMS during the baseline week.
# The severity at weeks 4 and 12 was calculated using the following formula for each of these weeks: • the number of mild VMS during 7 days multiplied by 1; • the number of moderate VMS during 7 days multiplied by 2; • the number of severe VMS during 7 days multiplied by 3. and adding the 3 resulting numbers together before dividing this total by the total number of mild, moderate and severe VMS during the 7 days of the week.
# This method was used to generate the data included in Example 1 further below, under section A. b) “VMS Severity”.
# In order to better analyse the data recorded in this study, treatment groups have been compared using an ANCOVA (analysis of covariance) with respect to the change in severity of moderate to severe VMS from baseline to mild, moderate and severe VMS at week 4 and week 12 for each active treatment versus placebo. For women who experienced 100% VMS relief at week 4 and/or week 12, a value of zero was attributed. The ANCOVA model includes treatment (“trt1”) as a fixed effect and baseline (“base”) as a covariate. • b) Covariate significance
structure (smiles),measurement,setting,value
"C[C@]12CC[C@@H]3c4ccc(O)cc4CC[C@H]3[C@@H]1[C@@H](O)[C@@H](O)[C@@H]2O [E4, 1,3,5 (10)-estratrien-3,15alpha,16alpha,17beta-tetrol]","Difference with placebo, LS adjusted mean, relative change in weekly severity of moderate to severe VMS","5 mg E4 vs placebo, week 12",0.1149
same,LS adjusted mean change from baseline in weekly severity of moderate to severe VMS,"10 mg E4, week 4",−0.4825
same,LS adjusted mean relative change from baseline in weekly severity of moderate to severe VMS,"10 mg E4, week 4",−0.2016
same,LS adjusted mean relative change from baseline in weekly severity of moderate to severe VMS,"10 mg E4, week 12",−0.2862
same,Mean change from baseline in weekly severity of moderate to severe VMS,"10 mg E4 QD per os, week 1",−0.2028
same,"Relative change (% from baseline) in weekly severity of moderate to severe VMS, mean","10 mg E4 QD per os, week 1",−8%
same,Mean change from baseline in weekly severity of moderate to severe VMS,"10 mg E4 QD per os, week 2",−0.3007
same,"Relative change (% from baseline) in weekly severity of moderate to severe VMS, mean","10 mg E4 QD per os, week 2",−13%
same,Mean change from baseline in weekly severity of moderate to severe VMS,"10 mg E4 QD per os, week 3",−0.3983
same,"Relative change (% from baseline) in weekly severity of moderate to severe VMS, mean","10 mg E4 QD per os, week 3",−17%
same,Mean change from baseline in weekly severity of moderate to severe VMS,"10 mg E4 QD per os, week 4",−0.4842
same,"Relative change (% from baseline) in weekly severity of moderate to severe VMS, mean","10 mg E4 QD per os, week 4",−20%
same,Mean change from baseline in weekly severity of moderate to severe VMS,"10 mg E4 QD per os, week 5",−0.5107
same,"Relative change (% from baseline) in weekly severity of moderate to severe VMS, mean","10 mg E4 QD per os, week 5",−21%
same,Mean change from baseline in weekly severity of moderate to severe VMS,"10 mg E4 QD per os, week 6",−0.6086
same,"Relative change (% from baseline) in weekly severity of moderate to severe VMS, mean","10 mg E4 QD per os, week 6",−26%
same,Mean change from baseline in weekly severity of moderate to severe VMS,"10 mg E4 QD per os, week 7",−0.643
same,"Relative change (% from baseline) in weekly severity of moderate to severe VMS, mean","10 mg E4 QD per os, week 7",−27%
same,Mean change from baseline in weekly severity of moderate to severe VMS,"10 mg E4 QD per os, week 8",−0.6644
same,"Relative change (% from baseline) in weekly severity of moderate to severe VMS, mean","10 mg E4 QD per os, week 8",−28%
same,Mean change from baseline in weekly severity of moderate to severe VMS,"10 mg E4 QD per os, week 9",−0.6864
same,"Relative change (% from baseline) in weekly severity of moderate to severe VMS, mean","10 mg E4 QD per os, week 9",−28%
same,Mean change from baseline in weekly severity of moderate to severe VMS,"10 mg E4 QD per os, week 10",−0.709
same,"Relative change (% from baseline) in weekly severity of moderate to severe VMS, mean","10 mg E4 QD per os, week 10",−29%
same,Mean change from baseline in weekly severity of moderate to severe VMS,"10 mg E4 QD per os, week 11",−0.666
same,"Relative change (% from baseline) in weekly severity of moderate to severe VMS, mean","10 mg E4 QD per os, week 11",−25%
same,Mean change from baseline in weekly severity of moderate to severe VMS,"10 mg E4 QD per os, week 12",−0.6941
same,"Relative change (% from baseline) in weekly severity of moderate to severe VMS, mean","10 mg E4 QD per os, week 12",−28%
same,"Difference with placebo, LS adjusted mean, absolute change in weekly severity of moderate to severe VMS","10 mg E4 vs placebo, week 4",−0.1547
same,"Difference with placebo, LS adjusted mean, relative change in weekly severity of moderate to severe VMS","10 mg E4 vs placebo, week 4",−0.06058
same,"Difference with placebo, LS adjusted mean, absolute change in weekly severity of moderate to severe VMS","10 mg E4 vs placebo, week 12",−0.03512
same,"Difference with placebo, LS adjusted mean, relative change in weekly severity of moderate to severe VMS","10 mg E4 vs placebo, week 12",−0.006415
same,LS adjusted mean change from baseline in weekly severity of moderate to severe VMS,"15 mg E4, week 4",−0.5888
same,LS adjusted mean relative change from baseline in weekly severity of moderate to severe VMS,"15 mg E4, week 4",−0.2427
same,LS adjusted mean relative change from baseline in weekly severity of moderate to severe VMS,"15 mg E4, week 12",−0.4375
same,Mean change from baseline in weekly severity of moderate to severe VMS,"15 mg E4 QD per os, week 1",−0.072
same,"Relative change (% from baseline) in weekly severity of moderate to severe VMS, mean","15 mg E4 QD per os, week 1",−3%
same,Mean change from baseline in weekly severity of moderate to severe VMS,"15 mg E4 QD per os, week 2",−0.2853
same,"Relative change (% from baseline) in weekly severity of moderate to severe VMS, mean","15 mg E4 QD per os, week 2",−12%
same,Mean change from baseline in weekly severity of moderate to severe VMS,"15 mg E4 QD per os, week 3",−0.4842
same,"Relative change (% from baseline) in weekly severity of moderate to severe VMS, mean","15 mg E4 QD per os, week 3",−20%
same,Mean change from baseline in weekly severity of moderate to severe VMS,"15 mg E4 QD per os, week 4",−0.5897
same,"Relative change (% from baseline) in weekly severity of moderate to severe VMS, mean","15 mg E4 QD per os, week 4",−24%
same,Mean change from baseline in weekly severity of moderate to severe VMS,"15 mg E4 QD per os, week 5",−0.7432
same,"Relative change (% from baseline) in weekly severity of moderate to severe VMS, mean","15 mg E4 QD per os, week 5",−31%
same,Mean change from baseline in weekly severity of moderate to severe VMS,"15 mg E4 QD per os, week 6",−0.7035
same,"Relative change (% from baseline) in weekly severity of moderate to severe VMS, mean","15 mg E4 QD per os, week 6",−30%
same,Mean change from baseline in weekly severity of moderate to severe VMS,"15 mg E4 QD per os, week 7",−0.8112
same,"Relative change (% from baseline) in weekly severity of moderate to severe VMS, mean","15 mg E4 QD per os, week 7",−34%
same,Mean change from baseline in weekly severity of moderate to severe VMS,"15 mg E4 QD per os, week 8",−0.8854
same,"Relative change (% from baseline) in weekly severity of moderate to severe VMS, mean","15 mg E4 QD per os, week 8",−37%
same,Mean change from baseline in weekly severity of moderate to severe VMS,"15 mg E4 QD per os, week 9",−0.9092
same,"Relative change (% from baseline) in weekly severity of moderate to severe VMS, mean","15 mg E4 QD per os, week 9",−38%
same,Mean change from baseline in weekly severity of moderate to severe VMS,"15 mg E4 QD per os, week 10",−0.9628
same,"Relative change (% from baseline) in weekly severity of moderate to severe VMS, mean","15 mg E4 QD per os, week 10",−40%
same,Mean change from baseline in weekly severity of moderate to severe VMS,"15 mg E4 QD per os, week 11",−1.0123
same,"Relative change (% from baseline) in weekly severity of moderate to severe VMS, mean","15 mg E4 QD per os, week 11",−42%
same,Mean change from baseline in weekly severity of moderate to severe VMS,"15 mg E4 QD per os, week 12",−1.0425
same,"Relative change (% from baseline) in weekly severity of moderate to severe VMS, mean","15 mg E4 QD per os, week 12",−44%
same,"Difference with placebo, LS adjusted mean, absolute change in weekly severity of moderate to severe VMS","15 mg E4 vs placebo, week 4",−0.261
same,"Difference with placebo, LS adjusted mean, relative change in weekly severity of moderate to severe VMS","15 mg E4 vs placebo, week 4",−0.1017
same,"Difference with placebo, LS adjusted mean, absolute change in weekly severity of moderate to severe VMS","15 mg E4 vs placebo, week 12",−0.3838
same,"Difference with placebo, LS adjusted mean, relative change in weekly severity of moderate to severe VMS","15 mg E4 vs placebo, week 12",−0.1577
same,Reduction in the severity of moderate to severe VMS when compared to baseline,15 mg daily dose,over 40%
